The values that follow come from ChEMBL document CHEMBL4184181, “Evaluation of alkylating pyrrole-imidazole polyamide conjugates by a novel method for high-throughput sequencer” (Bioorg Med Chem, 2018).

SMILES strings stand for the structures. pIC50: −log10 of the molar value. Activity calls are given as the source filed them. No cut-off for these calls is given here.

Assay [1] concerns A549. Kind of assay: Cytotoxicity against human A549 cells after 48 hrs by WST8 assay. The format is functional, cell-based. Conditions: A549, 48 h.
The species named for assay [2] is Bos taurus. Briefly: Alkylating activity at ACCTCAA sequence of calf thymus DNA assessed as enrichment ratio by measuring ratio of sample to input control after 1 hr by MERMADE method. Type of assay: functional.
The species entered for assay [3] is Bos taurus. Briefly: Alkylating activity at ACCTCTA sequence of calf thymus DNA assessed as enrichment ratio by measuring ratio of sample to input control after 1 hr by MERMADE method. The format is functional.
The species named for assay [4] is Bos taurus. Kind of assay: Alkylating activity at ACCACTA sequence of calf thymus DNA assessed as enrichment ratio by measuring ratio of sample to input control after 1 hr by MERMADE method. The format is functional.
The species named for assay [5] is Bos taurus. Briefly: Alkylating activity at ATCACTA sequence of calf thymus DNA assessed as enrichment ratio by measuring ratio of sample to input control after 1 hr by MERMADE method. The format is functional.
For assay [6], the species on record is Bos taurus. Briefly: Alkylating activity at CCTCTAG sequence of calf thymus DNA assessed as enrichment ratio by measuring ratio of sample to input control after 1 hr by MERMADE method. The format is functional.
The species entered for assay [7] is Bos taurus. Kind of assay: Alkylating activity at TAGTGAA sequence of calf thymus DNA assessed as enrichment ratio by measuring ratio of sample to input control after 1 hr by MERMADE method. Type of assay: functional.
The species entered for assay [8] is Bos taurus. Briefly: Alkylating activity at CCACTAG sequence of calf thymus DNA assessed as enrichment ratio by measuring ratio of sample to input control after 1 hr by MERMADE method. Type of assay: functional.
The species named for assay [9] is Bos taurus. Kind of assay: Alkylating activity at ACTAGTG sequence of calf thymus DNA assessed as enrichment ratio by measuring ratio of sample to input control after 1 hr by MERMADE method. The format is functional.
The species entered for assay [10] is Bos taurus. Briefly: Alkylating activity at CTAGTGA sequence of calf thymus DNA assessed as enrichment ratio by measuring ratio of sample to input control after 1 hr by MERMADE method. Type of assay: functional.
Assay [11] is filed under the species Bos taurus. Kind of assay: Alkylating activity at CCTCTAA sequence of calf thymus DNA assessed as enrichment ratio by measuring ratio of sample to input control after 1 hr by MERMADE method. Type of assay: functional.
For assay [12], the species on record is Bos taurus. Kind of assay: Alkylating activity at CTCTAGA sequence of calf thymus DNA assessed as enrichment ratio by measuring ratio of sample to input control after 1 hr by MERMADE method. Type of assay: functional.
The species entered for assay [13] is Bos taurus. Briefly: Alkylating activity at CACTAGA sequence of calf thymus DNA assessed as enrichment ratio by measuring ratio of sample to input control after 1 hr by MERMADE method. The format is functional.
For assay [14], the species on record is Bos taurus. Kind of assay: Alkylating activity at TACACTA sequence of calf thymus DNA assessed as enrichment ratio by measuring ratio of sample to input control after 1 hr by MERMADE method. The format is functional.
Assay [15] is filed under the species Bos taurus. Briefly: Alkylating activity at TCACTAA sequence of calf thymus DNA assessed as enrichment ratio by measuring ratio of sample to input control after 1 hr by MERMADE method. Type of assay: functional.
For assay [16], the species on record is Bos taurus. Briefly: Alkylating activity at ATCTCTA sequence of calf thymus DNA assessed as enrichment ratio by measuring ratio of sample to input control after 1 hr by MERMADE method. Type of assay: functional.
For assay [17], the species on record is Bos taurus. Briefly: Alkylating activity at AGTGGTA sequence of calf thymus DNA assessed as enrichment ratio by measuring ratio of sample to input control after 1 hr by MERMADE method. The format is functional.
The species entered for assay [18] is Bos taurus. Briefly: Alkylating activity at CCTCTAC sequence of calf thymus DNA assessed as enrichment ratio by measuring ratio of sample to input control after 1 hr by MERMADE method. Type of assay: functional.
Assay [19] is filed under the species Bos taurus. Kind of assay: Alkylating activity at ACCATTA sequence of calf thymus DNA assessed as enrichment ratio by measuring ratio of sample to input control after 1 hr by MERMADE method. Type of assay: functional.
The species named for assay [20] is Bos taurus. Briefly: Alkylating activity at CCTCAAG sequence of calf thymus DNA assessed as enrichment ratio by measuring ratio of sample to input control after 1 hr by MERMADE method. Type of assay: functional.
The species named for assay [21] is Bos taurus. Briefly: Alkylating activity at CCACTAA sequence of calf thymus DNA assessed as enrichment ratio by measuring ratio of sample to input control after 1 hr by MERMADE method. Type of assay: functional.
The species entered for assay [22] is Bos taurus. Briefly: Alkylating activity at calf thymus DNA containing adenine at seventh position of motif by MR method. Type of assay: functional.
The species named for assay [23] is Bos taurus. Briefly: Alkylating activity at ACCTCAC sequence of calf thymus DNA assessed as enrichment ratio by measuring ratio of sample to input control after 1 hr by MERMADE method. The format is functional.
The species entered for assay [24] is Bos taurus. Kind of assay: Alkylating activity at CCTCACC sequence of calf thymus DNA assessed as enrichment ratio by measuring ratio of sample to input control after 1 hr by MERMADE method. The format is functional.
Assay [25] is filed under the species Bos taurus. Briefly: Alkylating activity at TACCTCA sequence of calf thymus DNA assessed as enrichment ratio by measuring ratio of sample to input control after 1 hr by MERMADE method. The format is functional.
Assay [26] is filed under the species Bos taurus. Kind of assay: Alkylating activity at CACCTCA sequence of calf thymus DNA assessed as enrichment ratio by measuring ratio of sample to input control after 1 hr by MERMADE method. Type of assay: functional.
For assay [27], the species on record is Bos taurus. Briefly: Alkylating activity at CCACCTC sequence of calf thymus DNA assessed as enrichment ratio by measuring ratio of sample to input control after 1 hr by MERMADE method. Type of assay: functional.
For assay [28], the species on record is Bos taurus. Briefly: Alkylating activity at AGGTGAG sequence of calf thymus DNA assessed as enrichment ratio by measuring ratio of sample to input control after 1 hr by MERMADE method. The format is functional.
The species entered for assay [29] is Bos taurus. Briefly: Alkylating activity at GAGGTTA sequence of calf thymus DNA assessed as enrichment ratio by measuring ratio of sample to input control after 1 hr by MERMADE method. Type of assay: functional.
The species named for assay [30] is Bos taurus. Briefly: Alkylating activity at ACCTCAT sequence of calf thymus DNA assessed as enrichment ratio by measuring ratio of sample to input control after 1 hr by MERMADE method. The format is functional.
The species entered for assay [31] is Bos taurus. Kind of assay: Alkylating activity at CTACCTC sequence of calf thymus DNA assessed as enrichment ratio by measuring ratio of sample to input control after 1 hr by MERMADE method. The format is functional.
Assay [32] is filed under the species Bos taurus. Briefly: Alkylating activity at GAGGTGA sequence of calf thymus DNA assessed as enrichment ratio by measuring ratio of sample to input control after 1 hr by MERMADE method. Type of assay: functional.
For assay [33], the species on record is Bos taurus. Briefly: Alkylating activity at GGTGAGA sequence of calf thymus DNA assessed as enrichment ratio by measuring ratio of sample to input control after 1 hr by MERMADE method. Type of assay: functional.
For assay [34], the species on record is Bos taurus. Kind of assay: Alkylating activity at CTCCACC sequence of calf thymus DNA assessed as enrichment ratio by measuring ratio of sample to input control after 1 hr by MERMADE method. Type of assay: functional.
The species named for assay [35] is Bos taurus. Kind of assay: Alkylating activity at ACCTCAG sequence of calf thymus DNA assessed as enrichment ratio by measuring ratio of sample to input control after 1 hr by MERMADE method. The format is functional.
For assay [36], the species on record is Bos taurus. Briefly: Alkylating activity at CCACTCC sequence of calf thymus DNA assessed as enrichment ratio by measuring ratio of sample to input control after 1 hr by MERMADE method. The format is functional.
Assay [37] is filed under the species Bos taurus. Briefly: Alkylating activity at ATACCTC sequence of calf thymus DNA assessed as enrichment ratio by measuring ratio of sample to input control after 1 hr by MERMADE method. The format is functional.
Assay [38] is filed under the species Bos taurus. Briefly: Alkylating activity at GTGAGGA sequence of calf thymus DNA assessed as enrichment ratio by measuring ratio of sample to input control after 1 hr by MERMADE method. Type of assay: functional.
Assay [39] is filed under the species Bos taurus. Briefly: Alkylating activity at CGACCTC sequence of calf thymus DNA assessed as enrichment ratio by measuring ratio of sample to input control after 1 hr by MERMADE method. The format is functional.
The species entered for assay [40] is Bos taurus. Briefly: Alkylating activity at ACTCCTC sequence of calf thymus DNA assessed as enrichment ratio by measuring ratio of sample to input control after 1 hr by MERMADE method. The format is functional.

For `CC(=O)Nc1cn(C)c(C(=O)Nc2cn(C)c(C(=O)Nc3cn(C)c(C(=O)Nc4cn(C)c(C(=O)NCC[C@@H](NC(=O)OC(C)(C)C)C(=O)Nc5ccc(C(=O)Nc6cn(C)cc6C(=O)Nc6ccc7[nH]c(C(=O)N8CC(CCl)c9c8cc(O)c8ccccc98)cc7c6)n5C)n4)n3)n2)n1` (stereo partly drawn), in assay [1], the pIC50 is 6.92.

Regarding `CC(=O)Nc1cn(C)c(C(=O)Nc2cn(C)c(C(=O)Nc3cn(C)c(C(=O)Nc4cn(C)c(C(=O)NCC[C@@H](NC(=O)CCOCCOCCOCCOCCOCCOCCOCCOCCOCCOCCOCCOCCNC(=O)CCCC[C@@H]5SC[C@@H]6NC(=O)N[C@@H]65)C(=O)Nc5ccc(C(=O)Nc6cn(C)cc6C(=O)Nc6cn(C)cc6C(=O)Nc6ccc7[nH]c(C(=O)N8CC(CCl)c9c8cc(O)c8ccccc98)cc7c6)n5C)n4)n3)n2)n1` (stereo partly drawn), the Ratio in assay [2] came out at 4.19; in [3], 6.96; in assay [4], 5.11; in assay [5] it was 4.94; in assay [6], 4.45; in [7] it was 4.34. Moreover, the Ratio in [8] came to 4.13; in [9], 3.82; in assay [10], 3.82; in assay [11], 3.79; in assay [12] it was 3.68; in [13], 3.64. In addition, the Ratio was 3.63 in [14]; 3.61 in assay [15]; 3.46 in assay [16]; 3.37 in assay [17]; 3.33 in [18]; 3.28 in assay [19]. Also, the values for the Ratio in assay [20] and in assay [21] were 3.19 and 3.16, respectively. Further, in assay [22], the outcome was Active.

In the case of `CC(=O)Nc1cn(C)c(C(=O)Nc2cn(C)c(C(=O)Nc3cn(C)c(C(=O)Nc4cn(C)c(C(=O)NCC[C@@H](NC(=O)CCOCCOCCOCCOCCOCCOCCOCCOCCOCCOCCOCCOCCNC(=O)CCCC[C@@H]5SC[C@@H]6NC(=O)N[C@@H]65)C(=O)Nc5ccc(C(=O)Nc6cn(C)cc6C(=O)Nc6ccc7[nH]c(C(=O)N8CC(CCl)c9c8cc(O)c8ccccc98)cc7c6)n5C)n4)n3)n2)n1` (stereo partly drawn), the Ratio in [23] came to 2.69; in assay [24], 2.65; in assay [25], 2.48; in assay [26], 2.44; in [27], 2.4; in assay [28] it was 2.24. The Ratio came to 2.21 in [29]; 2.17 in assay [30]; 2.12 in assay [31]; 2.07 in [2]; 2.06 in [32]; 2.06 in [33]. The Ratio in assay [34] is 2.06; in [35], 2.05; in [36], 2.04; in assay [37], 2.02; in assay [38], 2.02; in [3] it was 2.01. For the same molecule, the Ratio in [39] and in assay [40] was 2 throughout.

In turn, `CC(=O)Nc1cn(C)c(C(=O)Nc2cn(C)c(C(=O)Nc3cn(C)c(C(=O)Nc4cn(C)c(C(=O)NCC[C@@H](NC(=O)OC(C)(C)C)C(=O)Nc5ccc(C(=O)Nc6cn(C)cc6C(=O)Nc6cn(C)cc6C(=O)Nc6ccc7[nH]c(C(=O)N8CC(CCl)c9c8cc(O)c8ccccc98)cc7c6)n5C)n4)n3)n2)n1` (stereo partly drawn) had a pIC50 in [1] of 7.20.
